Read-outs that look alike come from different tables or passages of the source.
Experiments:
human recombinant HDAC1 = target: T1, human recombinant HDAC1 (Homo sapiens, UniProt Q13547); test: HDAC1 enzyme activity inhibition (HDAC Fluorimetric Drug Discovery Kit); assay type: biochemical; settings: read-out: HDAC1
T1 construct: purchased Enzo Life Science, Inc. BML-SE456
Description: (§1) An experiment was conducted to identify the selectivity of the compound represented by formula I of the present invention to HDAC6 through an experiment on HDAC1 and HDAC6 enzyme activity inhibition.
(§2) A 5-fold dilution of the compound was divided into a 96-well plate, after which […] of the enzyme and 10 μM of the substrate were inserted into each well and subjected to reaction at 30° C. for 60 minutes, such that Fluor de Lys® Developer II (BML-KI176) was inserted thereinto and subjected to reaction for 30 minutes and finished.

human recombinant HDAC6 = target: T2, human recombinant HDAC6 (Homo sapiens, UniProt Q9UBN7); test: HDAC6 enzyme activity inhibition (HDAC Fluorimetric Drug Discovery Kit); assay type: biochemical; settings: for HDAC6 selectivity (fold): HDAC1 IC50 / HDAC6 IC50; for IC50: human recombinant HDAC6, IC50 calculated with GraphPad Prism
T2 construct: purchased Calbiochem Inc. 382180
T2 sequence (Q9UBN7 1-1215): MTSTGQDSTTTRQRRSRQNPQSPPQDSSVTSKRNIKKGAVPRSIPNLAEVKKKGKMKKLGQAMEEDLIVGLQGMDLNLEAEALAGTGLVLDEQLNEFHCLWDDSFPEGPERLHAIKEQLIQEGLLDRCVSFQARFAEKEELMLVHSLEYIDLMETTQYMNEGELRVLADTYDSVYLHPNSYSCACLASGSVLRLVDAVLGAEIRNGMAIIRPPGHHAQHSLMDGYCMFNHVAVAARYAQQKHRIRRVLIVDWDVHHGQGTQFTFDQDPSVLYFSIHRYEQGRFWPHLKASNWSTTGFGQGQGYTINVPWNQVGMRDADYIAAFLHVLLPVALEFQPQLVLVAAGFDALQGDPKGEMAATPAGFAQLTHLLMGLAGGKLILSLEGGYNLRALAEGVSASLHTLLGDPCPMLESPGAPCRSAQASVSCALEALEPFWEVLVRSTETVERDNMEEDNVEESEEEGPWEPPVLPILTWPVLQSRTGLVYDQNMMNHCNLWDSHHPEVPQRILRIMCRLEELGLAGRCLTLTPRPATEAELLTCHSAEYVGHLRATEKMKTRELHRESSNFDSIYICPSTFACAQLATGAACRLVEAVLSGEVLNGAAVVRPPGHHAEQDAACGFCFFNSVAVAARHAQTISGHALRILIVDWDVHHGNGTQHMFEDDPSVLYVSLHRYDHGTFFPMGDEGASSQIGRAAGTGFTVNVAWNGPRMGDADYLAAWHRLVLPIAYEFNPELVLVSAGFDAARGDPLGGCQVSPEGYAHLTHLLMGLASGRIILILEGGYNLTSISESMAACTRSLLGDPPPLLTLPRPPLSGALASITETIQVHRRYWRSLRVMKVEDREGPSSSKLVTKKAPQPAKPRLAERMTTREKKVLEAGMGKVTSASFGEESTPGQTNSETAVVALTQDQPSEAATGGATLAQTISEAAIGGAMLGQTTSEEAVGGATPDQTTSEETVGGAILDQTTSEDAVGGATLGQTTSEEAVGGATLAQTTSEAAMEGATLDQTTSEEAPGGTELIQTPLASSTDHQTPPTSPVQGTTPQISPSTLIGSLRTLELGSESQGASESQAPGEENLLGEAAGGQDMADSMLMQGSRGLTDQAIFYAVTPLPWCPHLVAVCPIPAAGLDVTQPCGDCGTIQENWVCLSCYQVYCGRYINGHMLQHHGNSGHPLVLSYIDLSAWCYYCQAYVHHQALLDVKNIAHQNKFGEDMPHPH
Description: as §1, §2

[1] = human recombinant HDAC1, IC50 calculated with GraphPad Prism
[2] = human recombinant HDAC1, Fluor de Lys substrate, 30° C. 60 minutes

T1 sequence (Q13547 whole entry): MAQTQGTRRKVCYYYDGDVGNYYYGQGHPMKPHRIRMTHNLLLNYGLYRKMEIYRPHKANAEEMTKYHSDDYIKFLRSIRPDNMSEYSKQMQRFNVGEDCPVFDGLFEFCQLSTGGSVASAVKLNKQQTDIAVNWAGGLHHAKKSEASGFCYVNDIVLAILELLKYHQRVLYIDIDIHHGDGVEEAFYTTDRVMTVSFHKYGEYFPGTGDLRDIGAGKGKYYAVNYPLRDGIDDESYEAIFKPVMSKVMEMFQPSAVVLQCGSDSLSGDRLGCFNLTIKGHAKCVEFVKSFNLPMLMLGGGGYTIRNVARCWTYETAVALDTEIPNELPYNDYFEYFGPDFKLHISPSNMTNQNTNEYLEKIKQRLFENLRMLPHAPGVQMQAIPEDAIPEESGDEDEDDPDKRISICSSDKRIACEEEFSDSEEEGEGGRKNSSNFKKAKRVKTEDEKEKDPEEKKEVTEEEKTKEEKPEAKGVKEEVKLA

Row | Compound | IC50 (human recombinant HDAC1; [1]) | HDAC6 selectivity (fold) (human recombinant HDAC6) | IC50 (human recombinant HDAC6) | IC50 (human recombinant HDAC1; [2])
1 | FC(F)c1nnc(-c2ccc(Cn3cc(-c4ccccc4)nn3)cc2)o1 [Compound 3657, 2-(difluoromethyl)-5-(4-((4-phenyl-1H-1,2,3-triazol-1-yl)methyl)phenyl)-1,3,4-oxadiazole] | > 50000 nM | 527 fold | 94.8 nM | 
2 | O=C(O)c1cccc(-c2cn(Cc3ccc(-c4nnc(C(F)F)o4)cc3)nn2)c1 [Compound 3659, 3-(1-(4-(5-(difluoromethyl)-1,3,4-oxadiazol-2-yl)benzyl)-1H-1,2,3-triazol-4-yl)benzoic acid] | > 50000 nM | 122 fold | 409 nM | 
3 | O=C(O)c1cccc(-c2cn(Cc3ccc(-c4nnc(C(F)F)o4)cc3F)nn2)c1 [Compound 3660, 3-(1-(4-(5-(difluoromethyl)-1,3,4-oxadiazol-2-yl)-2-fluorobenzyl)-1H-1,2,3-triazol-4-yl)benzoic acid] | > 50000 nM | 175 fold | 285 nM | 
4 | Fc1ccc(-c2cn(Cc3ccc(-c4nnc(C(F)F)o4)cc3)nn2)cc1F [Compound 3661, 2-(difluoromethyl)-5-(4-((4-(3,4-difluorophenyl)-1H-1,2,3-triazol-1-yl)methyl)phenyl)-1,3,4-oxadiazole] | > 50000 nM |  |  | 
5 | Fc1ccc(-c2cn(Cc3ccc(-c4nnc(C(F)F)o4)cc3F)nn2)cc1F [Compound 3662, 2-(difluoromethyl)-5-(4-((4-(3,4-difluorophenyl)-1H-1,2,3-triazol-1-yl)methyl)-3-fluorophenyl)-1,3,4-oxadiazole] | > 50000 nM | 289 fold | 173 nM | 
6 | FC(F)c1nnc(-c2ccc(Cn3cc(-c4cc(C(F)(F)F)cc(C(F)(F)F)c4)nn3)cc2)o1 [Compound 3695, 2-(4-((4-(3,5-bis(trifluoromethyl)phenyl)-1H-1,2,3-triazol-1-yl)methyl)phenyl)-5-(difluoromethyl)-1,3,4-oxadiazole] | > 50000 nM | 42 fold | 1190 nM | 
7 | Fc1cc(-c2nnc(C(F)F)o2)ccc1Cn1cc(-c2cc(C(F)(F)F)cc(C(F)(F)F)c2)nn1 [Compound 3696, 2-(4-((4-(3,5-bis(trifluoromethyl)phenyl)-1H-1,2,3-triazol-1-yl)methyl)-3-fluorophenyl)-5-(difluoromethyl)-1,3,4-oxadiazole] | > 50000 nM | 52 fold | 945 nM | 
8 | CC(C)(C)OC(=O)Nc1cccc(-c2cn(Cc3ccc(-c4nnc(C(F)F)o4)cc3F)nn2)c1 [Compound 3697, Tert-butyl (3-(1-(4-(5-(difluoromethyl)-1,3,4-oxadiazol-2-yl)-2-fluorobenzyl)-1H-1,2,3-triazol-4-yl)phenyl)carbamate] | > 50000 nM | 1101 fold | 45.4 nM | 
9 | CC(C)(C)OC(=O)Nc1cccc(-c2cn(Cc3ccc(-c4nnc(C(F)F)o4)cc3)nn2)c1 [Compound 3698, Tert-butyl (3-(1-(4-(5-(difluoromethyl)-1,3,4-oxadiazol-2-yl)benzyl)-1H-1,2,3-triazol-4-yl)phenyl)carbamate] | > 50000 nM | 1096 fold | 45.6 nM | 
10 | O=C(O)c1ccc(-c2cn(Cc3ccc(-c4nnc(C(F)F)o4)cc3)nn2)cc1 [Compound 3731, 4-(1-(4-(5-(difluoromethyl)-1,3,4-oxadiazol-2-yl)benzyl)-1H-1,2,3-triazol-4-yl)benzoic acid] | > 50000 nM | 29 fold | 1720 nM | 
11 | O=C(O)c1ccc(-c2cn(Cc3ccc(-c4nnc(C(F)F)o4)cc3F)nn2)cc1 [Compound 3732, 4-(1-(4-(5-(difluoromethyl)-1,3,4-oxadiazol-2-yl)-2-fluorobenzyl)-1H-1,2,3-triazol-4-yl)benzoic acid] | > 50000 nM | 74 fold | 672 nM | 

Now from value to compound:

Row | IC50 (human recombinant HDAC1; [1]) | HDAC6 selectivity (fold) (human recombinant HDAC6) | IC50 (human recombinant HDAC6) | IC50 (human recombinant HDAC1; [2]) | Compound
12 | > 50000 nM | 215 fold | 232 nM |  | Cc1ccc(-c2cn(Cc3ccc(-c4nnc(C(F)F)o4)cc3F)nn2)cc1 [Compound 3733, 2-(difluoromethyl)-5-(3-fluoro-4-((4-(p-tolyl)-1H-1,2,3-triazol-1-yl)methyl)phenyl)-1,3,4-oxadiazole]
13 | > 50000 nM | 500 fold | 244 nM |  | CC(C)(C)OC(=O)N1CCC(c2cn(Cc3ccc(-c4nnc(C(F)F)o4)cc3F)nn2)C1 (centres unmarked) [Compound 3734, Tert-butyl 3-(1-(4-(5-(difluoromethyl)-1,3,4-oxadiazol-2-yl)-2-fluorobenzyl)-1H-1,2,3-triazol-4-yl)pyrrolidin-1-carboxylate]
14 | > 50000 nM | 320 fold | 156 nM |  | CC(C)(C)OC(=O)N1CCC(c2cn(Cc3ccc(-c4nnc(C(F)F)o4)cc3F)nn2)CC1 [Compound 3735, Tert-butyl 4-(1-(4-(5-(difluoromethyl)-1,3,4-oxadiazol-2-yl)-2-fluorobenzyl)-1H-1,2,3-triazol-4-yl)piperidin-1-carboxylate]
15 | > 50000 nM |  |  |  | FC(F)c1nnc(-c2ccc(Cn3cc(-c4cn[nH]c4)nn3)nc2)o1 [Compound 3985, 2-(6-((4-(1H-pyrazol-4-yl)-1H-1,2,3-triazol-1-yl)methyl)pyridin-3-yl)-5-(difluoromethyl)-1,3,4-oxadiazole]
16 | > 50000 nM |  |  |  | CCN1CCC(c2cccc(-c3cn(Cc4ccc(-c5nnc(C(F)F)o5)cn4)nn3)c2)CC1 [Compound 4011, 2-(difluoromethyl)-5-(6-((4-(3-(1-ethylpiperidin-4-yl)phenyl)-1H-1,2,3-triazol-1-yl)methyl)pyridin-3-yl)-1,3,4-oxadiazole]
17 | > 50000 nM |  |  |  | CC(C)(F)C(=O)Nc1cccc(-c2cn(Cc3ccc(-c4nnc(C(F)F)o4)cc3F)nn2)c1 [Compound 4334]
18 | > 50000 nM |  |  |  | FC(F)c1nnc(-c2ccc(Cn3cc(-c4ccc5[nH]ncc5c4)nn3)cc2)o1 [Compound 4344, 2-(4-((4-(1H-indazol-5-yl)-1H-1,2,3-triazol-1-yl)methyl)phenyl)-5-(difluoromethyl)-1,3,4-oxadiazole]
19 |  |  |  | > 50000 nM | CC(C)N1Cc2ccc(-c3cn(Cc4ccc(-c5nnc(C(F)F)o5)cc4F)nn3)cc2C1 [Compound 4517, 2-(difluoromethyl)-5-(3-fluoro-4-((4-(2-isopropylisoindolin-5-yl)-1H-1,2,3-triazol-1-yl)methyl)phenyl)-1,3,4-oxadiazole]
20 |  |  |  | > 50000 nM | CN(C)Cc1ccc(-c2cn(Cc3ccc(-c4nnc(C(F)F)o4)cc3F)nn2)cc1 [Compound 4522, 1-(4-(1-(4-(5-(difluoromethyl)-1,3,4-oxadiazol-2-yl)-2-fluorobenzyl)-1H-1,2,3-triazol-4-yl)phenyl)-N,N-dimethylmethanamine]
21 |  |  |  | > 50000 nM | CN1CCN(c2cc(-c3cn(Cc4ccc(-c5nnc(C(F)F)o5)cc4F)nn3)ccn2)CC1 [Compound 4633, 2-(difluoromethyl)-5-(3-fluoro-4-((4-(2-(4-methylpiperazin-1-yl)pyridin-4-yl)-1H-1,2,3-triazol-1-yl)methyl)phenyl)-1,3,4-oxadiazole]
22 |  |  |  | > 50000 nM | Fc1cc(-c2nnc(C(F)F)o2)ccc1Cn1cc(-c2ccn3ccnc3c2)nn1 [Compound 17198, 2-(difluoromethyl)-5-(3-fluoro-4-((4-(imidazo[1,2-a]pyridin-7-yl)-1H-1,2,3-triazol-1-yl)methyl)phenyl)-1,3,4-oxadiazole]
23 |  |  |  | > 50000 nM | CN1CC(c2ccc(-c3cn(Cc4ccc(-c5nnc(C(F)F)o5)cc4F)nn3)cc2)C1 [Compound 17698]
24 |  |  |  | > 50000 nM | CN(C)Cc1ccc(-c2cn(Cc3ccc(-c4nnc(C(F)F)o4)cc3F)nn2)s1 [Compound 17914, 1-(5-(1-(4-(5-(difluoromethyl)-1,3,4-oxadiazol-2-yl)-2-fluorobenzyl)-1H-1,2,3-triazol-4-yl)thiophen-2-yl)-N,N-dimethylmethanamine]
